Tested on: Plasmodium berghei
Test: Luciferase/luciferin-expressing antifolate-resistant parasites were used to infect a culture of HepG2 cells that were pre-incubated with compounds. Infected hepatocytes emit light due to the luciferase reaction. Assay results are presented as the percent inhibition of light emission compared to control. […]
Assay type: functional
Details: sporozoite; for IC90: read-out: LUCIFERASE INFECTION ASSAY - IC90
[1] = read-out: LUCIFERASE INFECTION ASSAY - IC50

Structure (SMILES) | IC90 | IC50 [1] | further results
C/C(=N\NC(=S)NC(C)(C)C)c1cc(F)cc(F)c1O | 10.5 µM | – | IC50 (HEPG2TOX_HILL_SLOPE 8.26, HEPG2TOX_R_SQUARED 0.458, PBLUC_HILL_SLOPE 21.3, PBLUC_R_SQUARED 0.177, read-out: LUCIFERASE INFECTION ASSAY - IC50): 9.5 µM
Nc1nc(Cl)cc(NCCc2ccccc2)n1 | > 13.3 µM | – | IC50 (HEPG2TOX_HILL_SLOPE 4.29, HEPG2TOX_R_SQUARED 0.965, PBLUC_HILL_SLOPE 3.15, PBLUC_R_SQUARED 0.0969, read-out: LUCIFERASE INFECTION ASSAY - IC50): 10.4 µM
Cn1nc(CC(=O)N2CC(C(=O)N3CCCCC3)Oc3ccccc32)c2ccccc2c1=O (stereo unspecified) | > 10 µM | > 10 µM | –
C=CCNC(=S)Nc1ccc(Oc2cc(C(F)(F)F)cc(C(F)(F)F)c2)cc1 | 6.91 µM | 3.04 µM | –
Cc1ccc(C(C=CC(C#N)C#N)=Nc2ccc(Cl)cc2)cc1 | > 10.3 µM | > 10.3 µM | –
CC(=O)Nc1ccc(Sc2ccnc3cc(Cl)ccc23)cc1 | 3.98 µM | – | IC50 (FFLUC_HILL_SLOPE 2.92, FFLUC_R_SQUARED 0.4, PBLUC_HILL_SLOPE 11.7, PBLUC_R_SQUARED 0.574, read-out: LUCIFERASE INFECTION ASSAY - IC50): 3.29 µM
N#Cc1ccc(C(=O)C(C#N)c2nc(-c3ccc(F)cc3)cs2)cc1 (stereo unspecified) | 3.83 µM | – | IC50 (PBLUC_HILL_SLOPE 17.7, PBLUC_R_SQUARED 0.0264, read-out: LUCIFERASE INFECTION ASSAY - IC50): 3.38 µM
COc1ccc2nc(C)cc(NC(C)CCc3ccccc3)c2c1 (stereo unspecified) | > 10 µM | – | IC50 (PBLUC_HILL_SLOPE 1.9, PBLUC_R_SQUARED 0.397, read-out: LUCIFERASE INFECTION ASSAY - IC50): 6.04 µM
Cc1ccc(C(NCC(=O)Nc2cc(S(C)(=O)=O)ccc2Cl)c2ccccc2)cc1C (stereo unspecified) | 4.49 µM | – | IC50 (PBLUC_HILL_SLOPE 11.2, PBLUC_R_SQUARED 0.465, read-out: LUCIFERASE INFECTION ASSAY - IC50): 3.69 µM
Cc1cccc(C(=O)NCCC(=O)NCc2ccccc2F)c1 | > 10 µM | > 10 µM | –
CCNC(=O)c1cc(Cl)c(OCc2ccccc2)c(OC)c1 | > 10.3 µM | – | IC50 (PBLUC_HILL_SLOPE 2.26, PBLUC_R_SQUARED 0.647, read-out: LUCIFERASE INFECTION ASSAY - IC50): 5.81 µM
CCCn1c(NC(=O)c2c(C)nn(Cc3ccccc3)c2Cl)nc2ccccc21 | > 10 µM | – | IC50 (HEPG2TOX_HILL_SLOPE 8.06, 7.61, HEPG2TOX_R_SQUARED 0.217, 0.871, PBLUC_HILL_SLOPE 3.35, PBLUC_R_SQUARED 0.605, read-out: LUCIFERASE INFECTION ASSAY - IC50): 5.57 µM
Cc1ccccc1-c1cnc2cnc(-c3ccc(N4CCN(C)CC4)nc3)cn12 | > 8.58 µM | – | IC50 (PBLUC_HILL_SLOPE 2.3, PBLUC_R_SQUARED 0.345, read-out: LUCIFERASE INFECTION ASSAY - IC50): > 8.58 µM
CC(C)CN(C(=O)CN(C)C(=O)c1ccco1)c1c(N)n(CC(C)C)c(=O)[nH]c1=O | > 10 µM | > 10 µM | –
CC(C)c1noc(CCC(=O)Nc2ccc(F)cc2F)n1 | > 10 µM | > 10 µM | –
O=C(N/N=C/c1sc(Nc2ccccc2)nc1Cl)c1cc(-c2ccncc2)nc2ccccc12 | > 10 µM | > 10 µM | –
CC(C)c1ccc(NC(=O)CSc2ncc3c(n2)CC(C)(C)CC3=O)cc1 | > 8.6 µM | > 8.6 µM | –
FC(F)(F)Oc1ccc(-c2ccc(OCCCc3ccccn3)nc2)cc1 | > 8.82 µM | – | IC50 (HEPG2TOX_HILL_SLOPE 2.06, HEPG2TOX_R_SQUARED 0.963, PBLUC_HILL_SLOPE 4.51, PBLUC_R_SQUARED 0.157, read-out: LUCIFERASE INFECTION ASSAY - IC50): 6.75 µM
c1coc(CC2CCCC2Nc2c3ccccc3nc3ccccc23)c1 (stereo unspecified) | 1.22 µM | – | IC50 (PBLUC_HILL_SLOPE 13.4, PBLUC_R_SQUARED 0.585, read-out: LUCIFERASE INFECTION ASSAY - IC50): 1.04 µM
CCN(Cc1ccc(Cl)s1)C(=O)c1ccc(NC(=O)c2ccco2)cc1 | > 10 µM | – | IC50 (PBLUC_HILL_SLOPE 2.47, PBLUC_R_SQUARED 0.568, read-out: LUCIFERASE INFECTION ASSAY - IC50): 5.55 µM
Cc1nn(-c2ccccc2)c(N2CCCCC2)c1/C=N/Nc1cc(-c2ccccc2)c2ccccc2n1 | > 10 µM | – | IC50 (FFLUC_HILL_SLOPE 1.88, FFLUC_R_SQUARED 0.83, PBLUC_HILL_SLOPE 15.6, PBLUC_R_SQUARED 0.0616, read-out: LUCIFERASE INFECTION ASSAY - IC50): 8.96 µM
O=C(Nc1ccc(OCc2ccccc2)cc1)c1csc(C(O)c2cccc(Cl)c2)n1 (stereo unspecified) | 3.73 µM | – | IC50 (HEPG2TOX_HILL_SLOPE 2.48, HEPG2TOX_R_SQUARED 0.94, PBLUC_HILL_SLOPE 11.3, PBLUC_R_SQUARED 0.644, read-out: LUCIFERASE INFECTION ASSAY - IC50): 3.07 µM

Structure (SMILES) | IC90 | IC50 [1] | further results
O=C(COC(=O)/C=C/c1ccc(I)o1)Nc1cc(S(=O)(=O)N2CCCCC2)ccc1Cl | > 10 µM | – | IC50 (FFLUC_HILL_SLOPE 7.36, FFLUC_R_SQUARED 0.327, read-out: LUCIFERASE INFECTION ASSAY - IC50): > 10 µM
O=C(NNC(=O)C12CC3CC(CC(C3)C1)C2)c1nn(-c2ccccc2)cc1O | 3.89 µM | 3.26 µM | –
CC(C)Oc1cccc(C(=O)N2C(C)CCCC2C)c1 (stereo unspecified) | > 12 µM | > 12 µM | –
CNc1nc2cnc(Nc3cc(C(F)(F)F)ccc3F)cc2n1Cc1ccco1 | > 10 µM | – | IC50 (HEPG2TOX_HILL_SLOPE 10.6, HEPG2TOX_R_SQUARED 0.165, read-out: LUCIFERASE INFECTION ASSAY - IC50): > 10 µM
Cc1ccc(C(=O)O)cc1NS(C)(=O)=O | > 10 µM | > 10 µM | –
CCS(=O)(=O)N1CCC(C(=O)Nc2nc3ccc(Oc4ccccc4)cc3s2)CC1 | > 10 µM | – | IC50 (HEPG2TOX_HILL_SLOPE 0.324, HEPG2TOX_R_SQUARED 0.65, PBLUC_HILL_SLOPE 2.34, PBLUC_R_SQUARED 0.492, read-out: LUCIFERASE INFECTION ASSAY - IC50): 5.6 µM
CCOc1ccccc1NC(=O)c1nc(-c2ccccc2)n(-c2ccccc2)n1 | 3.4 µM | – | IC50 (PBLUC_HILL_SLOPE 61.7, PBLUC_R_SQUARED 0.143, read-out: LUCIFERASE INFECTION ASSAY - IC50): 3.28 µM
O=C(Nc1ccccc1Cc1ccccc1)c1ccccc1NS(=O)(=O)c1ccc(Cl)s1 | 3.48 µM | – | IC50 (FFLUC_HILL_SLOPE 7.32, FFLUC_R_SQUARED 0.665, HEPG2TOX_HILL_SLOPE 2.07, HEPG2TOX_R_SQUARED 0.984, PBLUC_HILL_SLOPE 54.5, PBLUC_R_SQUARED 0.445, read-out: LUCIFERASE INFECTION ASSAY - IC50): 3.34 µM
Cc1sc2nc(CN3CCOCC3)nc(NCCOc3ccccc3)c2c1C | > 10 µM | > 10 µM | –
Cn1ncc2c(ON=C(N)c3ccc(C(C)(C)C)cc3)ncnc21 | 9.41 µM | – | IC50 (HEPG2TOX_HILL_SLOPE 12.1, HEPG2TOX_R_SQUARED 0.899, PBLUC_HILL_SLOPE 18.6, PBLUC_R_SQUARED 0.286, read-out: LUCIFERASE INFECTION ASSAY - IC50): 8.36 µM
O=C1Nc2ccc(Cl)cc2/C1=C/c1cn(Cc2ccccc2)nc1-c1cccnc1 | > 10 µM | – | IC50 (PBLUC_HILL_SLOPE 3.18, PBLUC_R_SQUARED 0.696, read-out: LUCIFERASE INFECTION ASSAY - IC50): 5.57 µM
Cc1cc(C(=O)N/N=C/c2ccc(Sc3ncccn3)c([N+](=O)[O-])c2)c(C)n1-c1ccccc1 | > 10 µM | > 10 µM | –
COc1ccccc1-n1nnnc1SCC(O)Cn1c2ccccc2c2ccccc21 (stereo unspecified) | > 10 µM | – | IC50 (FFLUC_HILL_SLOPE 2.23, FFLUC_R_SQUARED 0.596, PBLUC_HILL_SLOPE 13.3, PBLUC_R_SQUARED 0.223, read-out: LUCIFERASE INFECTION ASSAY - IC50): 9.95 µM
CNS(=O)(=O)c1ccc(CCC(=O)OC2CCCCC2=O)cc1 (stereo unspecified) | > 10 µM | > 10 µM | –
NC(=O)c1c(NC(=O)COC(=O)C2=NN(c3ccccc3)C(=O)CC2)sc2c1CCC2 | > 10 µM | > 10 µM | –
CNc1nc2cnc(Nc3cccc(C)c3)cc2n1Cc1ccc(OC)c(OC)c1 | > 10 µM | – | IC50 (HEPG2TOX_HILL_SLOPE 6.56, HEPG2TOX_R_SQUARED 0.678, read-out: LUCIFERASE INFECTION ASSAY - IC50): > 10 µM
Cc1ccc2nc(NC(=O)c3ccc(Cl)cc3)c(C(=O)NC3CCCC3)n2c1 | 3.09 µM | – | IC50 (HEPG2TOX_HILL_SLOPE 3.44, HEPG2TOX_R_SQUARED 0.175, PBLUC_HILL_SLOPE 15.5, PBLUC_R_SQUARED 0.331, read-out: LUCIFERASE INFECTION ASSAY - IC50): 2.68 µM
O=C(Nc1cccc(S(=O)(=O)NC2CC2)c1)c1cc(-c2ccccc2)nn1-c1ccccc1 | > 10 µM | – | IC50 (HEPG2TOX_HILL_SLOPE 3.71, HEPG2TOX_R_SQUARED 0.26, read-out: LUCIFERASE INFECTION ASSAY - IC50): > 10 µM
COC(=O)c1c(NC(=O)c2ccoc2)c2cc(NCCc3ccccc3)cnc2n1Cc1ccccc1 | > 6.67 µM | – | IC50 (FFLUC_HILL_SLOPE 1.52, FFLUC_R_SQUARED 0.257, PBLUC_HILL_SLOPE 25.4, PBLUC_R_SQUARED 0.141, read-out: LUCIFERASE INFECTION ASSAY - IC50): > 6.67 µM
CCc1ccc(CN(Cc2cccnc2)C(=O)c2ccc3ccccc3n2)cc1 | 4.26 µM | – | IC50 (PBLUC_HILL_SLOPE 15.3, PBLUC_R_SQUARED 0.276, read-out: LUCIFERASE INFECTION ASSAY - IC50): 3.69 µM
CC(C)c1ccc(-c2cnc3sc(NC4CCC(O)CC4)nn23)cc1 (stereo unspecified) | > 9.26 µM | – | IC50 (PBLUC_HILL_SLOPE 11.9, PBLUC_R_SQUARED 0.449, read-out: LUCIFERASE INFECTION ASSAY - IC50): 8.25 µM
